# What was measured:
# [1] = cited from earlier work
# [2] = test system: Healthy human patients who experience non-specific headaches; test: Headache rated on 10-point scale, aspirin with acetaminophen and caffeine, Example 4; assay type: in vivo; settings: 30 minutes
# Procedure: (§1) Healthy human patients who experience non-specific headaches were recruited for this study. […] Each patient was asked to rate his or her headache on the 10-point scale (see FIG. 3). The patient then swallowed 486 mg of aspirin (6 tablets of 81 mg each) without chewing, immediately followed by swallowing a combination of pill 1000 mg acetaminophen and 130 mg caffeine. Each patient was asked to rate his or headache again on the 10-point scale 30-minutes later. […] The patient then chewed 486 mg of aspirin (6 tablets of 81 mg each) and rubbed the aspirin in their oral mucosa, lips, gums and mouth and was asked to be careful not to swallow any of the aspirin, but to wash out their mouth afterwards with a sip of soda and spitting out such that no aspirin was swallowed. This was immediately followed by the patient swallowing a combination pill of 1000 mg acetaminophen and 130 mg caffeine. Each patient was asked to rate his or headache again on the 10-point scale 30-minutes later. Not until at least two days later did Period III start. […] The patient then chewed 486 mg of aspirin (6 tablets of 81 mg each) and rubbed the aspirin in their oral mucosa, lips, gums and mouth for about 10 seconds or until half was dissolved, then to take a sip of soda to wash the rest, but this time to swallow the soda and aspirin such that half was swallowed. This was immediately followed by the patient swallowing a combination pill of 1000 mg acetaminophen and 130 mg caffeine. Each patient was asked to rate his or headache again on the 10-point scale 30-minutes later.
# Healthy human patients = test: Niacin flush rated on the Global Flush Severity Scale (GFSS), Example 1; assay type: in vivo; settings: then 500 mg niacin
# Procedure: Healthy human patients were recruited for this study. […] Each patient was asked to rate his or her flush on the Global Flush Severity Scale (GFSS) (see FIG. 1 and Paolini et al. Int. J. Clin. Pract. 62(6):896-904 (2008)), when the flush completely resolved. The Global Flushing Severity Score measures, overall, in the previous 24 hours, how each patient rates the flushing symptoms, including redness, warmth, tingling, and itchiness of the skin. […] After the flush completely resolved, then each patient recorded his or her GFSS flush rating. Not until at least two days later did Period III start. At Period III, each patient was asked to not swallow the orally administered aspirin (81 mg) but to allow the aspirin to be absorbed through the oral mucosa. The aspirin was in powdered form and the remaining aspirin in the mouth was washed out with water. […] Still, the flush was rated (GFSS) after it was resolved. […] The flush was then rated (GFSS) after it completely resolved.
# [3] = test system: Healthy human patients who experience non-specific headaches; test: Headache rated on 10-point scale, aspirin alone, Example 5; assay type: in vivo; settings: 30 minutes
# Procedure: as §1, with “891” for “486”, “(11” for “(6”, “chewing.” for “chewing, immediately followed by swallowing a combination of pill 1000 mg acetaminophen and 130 mg caffeine.”, “swallowed.” for “swallowed. This was immediately followed by the patient swallowing a combination pill of 1000 mg acetaminophen and 130 mg caffeine.”
# [4] = Period II: 81 mg aspirin swallowed
# [5] = Period IV: 81 mg aspirin half mucosally absorbed and half swallowed
Compound,time to peak of aspirin serum levels following administration ([1]; GI-absorbed aspirin),decrease in headache ([2]; Period I: 486 mg aspirin swallowed + 1000 mg acetaminophen and 130 mg caffeine),"decrease in headache ([2]; Period II: 486 mg aspirin chewed, oral mucosa only, none swallowed + 1000 mg acetaminophen and 130 mg caffeine)","decrease in headache ([2]; Period III: 486 mg aspirin half dissolved in mouth, half swallowed + 1000 mg acetaminophen and 130 mg caffeine)",Global Flush Severity Scale (GFSS) average score (Healthy human patients; [4]),reduction of flush severity from Period I (Healthy human patients; [4]),Global Flush Severity Scale (GFSS) average score (Healthy human patients; Period III: 81 mg aspirin mucosally absorbed (not swallowed)),reduction of flush severity from Period I (Healthy human patients; Period III: 81 mg aspirin mucosally absorbed),Global Flush Severity Scale (GFSS) average score (Healthy human patients; [5]),reduction of flush severity from Period I (Healthy human patients; [5]),decrease in headache ([3]; Period I: 891 mg aspirin swallowed),"decrease in headache ([3]; Period II: 891 mg aspirin chewed, oral mucosa only, none swallowed)","decrease in headache ([3]; Period III: 891 mg aspirin half dissolved in mouth, half swallowed)","time within which most of the elimination from the serum occurs ([1]; salicylic acid, metabolite of aspirin)"
"CC(=O)Oc1ccccc1C(=O)O [aspirin, acetylsalicylic acid]",15 to 20 min,55%,62%,77%,6.88,18%,5.06,40%,3.94,53%,53%,57%,86%,–
O=C(O)c1ccccc1O [salicylic acid],–,–,–,–,–,–,–,–,–,–,–,–,–,≤ 20 min

# Source: patent US20200253990A1, “ASPIRIN FORMULATION FOR INCREASED EFFICACY” (Vitalis LLC, priority 2013, published 2020)
